Source: PMC8216263 (Pharmaceutical Biology, 2021)

Tests used:
[1] = Single- and multiple-dose plasma pharmacokinetics of GA and PCA after oral RLQ in healthy subjects; type: in vivo, human; conditions: LC-MS/MS after oral RLQ
Procedure: The study protocol was approved by the Ethics Committee of the Second Affiliated Hospital of Tianjin University of Traditional Chinese Medicine. […] Subjects were offered standard meals at 4 and 10 h after dosing. Water was not permitted during the hour before and the hour after dosing, except for 240 mL administered with dosing; additional water intake was allowed at all other times.
In the single-dose study, 8 g of RLQ was administered orally on day 1. A 7-d washout time was designed between single-dose and multiple-dose pharmacokinetic studies. In the multiple-dose study, subjects received multiple doses of RLQ (8 g, t.i.d.) for seven consecutive days from day 8 to day 14 and a single dose of RLQ (8 g) on the morning of day 15. […] Additional pre-dose samples were collected in the morning on days 12, 13 and 14. […] All samples were stored at −80 °C until analysis.
All analytes were extracted from plasma and urine samples by simple protein precipitation extraction method using acetonitrile. Briefly, 5 µL of internal standard solution and 300 μL of acetonitrile were added to the spiked blank matrix (100 μL) and vortexed for 3 min and then centrifuged at 13,000 × g for 10 min. The supernatant was transferred and dried using a flow of nitrogen. The residue was re-dissolved in 100 µL of 10% methanol solution containing 0.1% formic acid. An aliquot of 5 µL solution was injected into the LC-MS/MS system for analysis.
The chromatographic separation was performed on an Acquity Ultra Performance LC instrument (Waters, Milford, MA) with a gradient programme in an ACQUITY UPLC BEH C18 column (2.1 mm × 100 mm, 1.7 μm). […] The injection volume was 2 µL. The mass spectrometry analysis was performed on an AB Sciex Triple Quad 5500 MS (Framingham, MA) equipped with an ESI source.
The peak plasma concentration (Cmax) and time to reach the peak plasma concentration (Tmax) were calculated from the actual plasma concentration data. The area under the plasma concentration-time curve from zero to the last measurable concentration (AUC0–t) was calculated via the linear trapezoidal rule. AUC0–∞ was calculated using the following formula: AUC0–∞ = AUC0–t + Ct/ke, where Ct is the last plasma concentration measured. […] The accumulation index was calculated as AUCss/AUC0–t.

[2] = target: T1, BCRP (Homo sapiens, UniProt Q9UNQ0); set-up: method as in Ebert et al. 2006; conditions: Caco-2 cells pre-treated with quercetin, ref Ebert et al. 2006; cited from earlier work
T1 sequence (Q9UNQ0 1-655): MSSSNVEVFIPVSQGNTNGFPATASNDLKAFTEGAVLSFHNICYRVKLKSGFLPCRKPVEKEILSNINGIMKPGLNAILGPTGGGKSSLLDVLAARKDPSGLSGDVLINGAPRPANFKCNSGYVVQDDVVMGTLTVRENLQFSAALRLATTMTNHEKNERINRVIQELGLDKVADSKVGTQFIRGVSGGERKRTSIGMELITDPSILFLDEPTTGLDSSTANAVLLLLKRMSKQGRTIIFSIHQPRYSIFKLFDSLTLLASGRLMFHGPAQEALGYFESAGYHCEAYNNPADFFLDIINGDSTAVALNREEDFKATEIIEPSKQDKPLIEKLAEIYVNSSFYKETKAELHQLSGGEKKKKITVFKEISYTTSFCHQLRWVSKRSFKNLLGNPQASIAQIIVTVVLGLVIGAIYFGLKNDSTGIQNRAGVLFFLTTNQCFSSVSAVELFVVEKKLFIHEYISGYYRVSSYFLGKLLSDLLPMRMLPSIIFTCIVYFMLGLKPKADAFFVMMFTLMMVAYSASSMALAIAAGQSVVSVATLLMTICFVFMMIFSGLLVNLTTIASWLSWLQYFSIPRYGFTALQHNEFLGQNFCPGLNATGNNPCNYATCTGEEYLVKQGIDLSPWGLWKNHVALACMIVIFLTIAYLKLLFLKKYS

Compound: O=c1c(O)c(-c2ccc(O)cc2)oc2cc(O)cc(O)c12 [kaempferol]
- response in human plasma and urine samples [1]: little or no response

Compound: O=c1c(O)c(-c2ccc(O)c(O)c2)oc2cc(O)cc(O)c12 [quercetin]
- response in human plasma and urine samples [1]: little or no response
- apical transport of BCRP-mediated benzo(a)pyrene-3-sulphate [2]: increase
